Assay results: US10087199B2, “Super-resolution imaging compositions and methods using same” (Yale University, priority 2014, dated 2018)

Columns and labels:
Format in all cases: cell-based
HeLa cells = test: Cell viability / cell- and photo-toxicity under prolonged imaging; settings: 5 μM
Protocol: In the experiments described above, the cells were exposed to Cer-TCO/SiR-Tz for minutes, a relatively short time period. To evaluate whether this Golgi labeling strategy would result in cell- or photo-toxicity over prolonged periods (such as hours), HeLa cells were treated with varying concentrations of either Cer-TCO/SiR-Tz or BODIPY® FL C5-ceramide (BODIPY-Cer) (Marks, et al., 2008, Cell Biol. 130:819-832; Pagano, et al., 1991, J. Cell Biol. 113:1267-1279), a commercially available fluorescent dye that labels the Golgi. […]
Hela cells stably expressing GalNAcT2-GFP were cultured on 35 mm glass bottom dishes subsequently labeled with various concentrations of TCO-Cer (0, 1, 2, and 5 μM) and SiR-Tz (0, 1, and 2 μM) following the protocol described elsewhere herein. […] After equilibration for 30 min, phase contrast images were taken at an interval of 20 min and fluorescence images at an interval of 10 min over 400-750 min. […] The number of physically intact cells was counted at each time point. For each condition at least 110 cells were counted/observed in the initial images (n0 (0 μM TCO-Cer, 0 μM SiR-Tz)=123 cells, n0 (2 μM TCO-Cer, 2 μM SiR-Tz)=113 cells, n0 (1 μM TCO-Cer, 1 μM SiR-Tz)=130 cells, n0 (5 μM TCO-Cer, 1 μM SiR-Tz)=120 cells, n0 (5 μM BODIPY-Cer)=123 cells).

HeLa cells (Golgi label) = test: Photostability in sequential 3D spinning disk confocal imaging; settings: live cells; spinning disk confocal
Protocol: The relative photostability of Cer-TCO/SiR-Tz to both BODIPY-Cer and the SiR labeled SNAP-tag Golgi protein Rab6 was compared. The latter is the product of reaction between Rab6-SNAP and a benzyl guanine derivative of SiR (SiR-BG) (Lukinavicius, et al., 2013, Nature Chem. 5:132-139) and thus contains the same near-IR dye as SiR-Tz (FIGS. 5A-5B). HeLa cells were treated with Cer-TCO/SiR-Tz or BODIPY-Cer, while Rab6-SNAP-expressing cells were treated with SiR-BG. The cells were then examined in sequential 3D images using spinning disk confocal microscopy; 3D visualization limited fluorescence fluctuations due to axial sample drift. In each case, 3D “stacks” of 22 optical sections were acquired in series up to 500 times in live or fixed cells (FIGS. 5A-5B). In live cells, even under optimal imaging conditions the BODIPY-Cer fluorescent signal decreased by 50% after fewer than 15 stacks. In striking contrast, the fluorescent signal of cells treated with 2 μM Cer-TCO followed by 2 μM SiR-Tz decreased by only 10% after more than 120 3D stacks had been acquired. Consistent with a lower density of Rab6-SNAP protein in the Golgi, the signal from Rab6-SNAP-SiR decayed at an intermediate rate, decreasing by 50% after about 50 3D stacks. […] After 500 3D stacks the fluorescent signal of Cer-SiR decreased 16% whereas that of Rab6-SNAP-SiR decreased by 84%. […]

[1] = tested on: HeLa cells that stably expressed GalNAcT2-GFP; test: FRAP analysis of GalNAcT2-GFP mobility within the Golgi; settings: recovery over 490 seconds, Cer-TCO alone or 5 μM Cer-TCO and 1 μM SiR-Tz, versus untreated
Excerpt: To further test whether the combination of Cer-TCO and SiRTz affected traffic within the Golgi, HeLa cells that stably expressed the GFP-tagged transmembrane Golgi enzyme GalNAcT2 (Storrie, et al., 1998, J. Cell Biol. 143:1505-1521) were used and its intra-organelle mobility was monitored using fluorescence recovery after photobleaching (FRAP) experiments (FIG. 4A). A small rectangular area of the Golgi (about 2.2 microns wide) was photobleached at 488 nm and the fluorescence recovery was monitored over 490 seconds (FIG. 4B). Both the t1/2 of recovery and mobile fraction were unchanged when the cells were treated with Cer-TCO alone or the combination of 5 μM Cer-TCO and 1 μM SiR-Tz (FIG. 4C). Thus, treatment of cells with Cer-TCO alone or Cer-TCO and SiR-Tz led to no detectable change in the diffusion of GalNAcT2-GFP within the Golgi apparatus.
The stable cell line was cultured on a 35 mm glass bottom dish. In the negative control (no treatment), the medium was replaced by DMEM ph(−). […] The photobleaching of the FRAP experiment was performed with a fluorescence recovery after photobleaching unit of the microscope. […] Quantification was performed with ImageJ. The fluorescence intensity in the unbleached region of the cytosol was subtracted from that in the bleached region of Golgi. […]

[2] = tested on: HeLa cells that stably expressed GalNAcT2-GFP (Golgi); test: Two-step Golgi labeling and colocalization with GalNAcT2-GFP by confocal microscopy
Protocol: To evaluate whether the Golgi could be selectively imaged using Cer-SiR, HeLa cells that stably expressed a protein fusion composed of GFP and N-acetyl-galactosaminyltransferase 2 (GalNAcT2), a transmembrane protein that localizes to the Golgi with high specificity (Storrie, et al., 1998, J. Cell Biol. 143:1505-1521), were used. These cells were treated with 2 μM Cer-TCO (5 min), maintained at 19.5° C. for 60 min to localize the lipid to the Golgi, treated subsequently with 2 μM SiR-Tz (30 min), and visualized using confocal microscopy (FIG. 2A).
The GalNAcT2-GFP and Cer-SiR signals colocalized with a Pearson's coefficient of 0.50±0.02; the corresponding value for the signals from GalNAcT2-GFP and SiR-Tz was 0.08±0.01 (p<0.0001) (FIG. 10), supporting that Cer-TCO effectively localized to the Golgi and reacted efficiently with SiR-Tz.
Stably or transiently transfected HeLa cells were cultured on 35 mm glass bottom dishes (Mattek). To label with Cer-TCO/SiR-Tz, the cells were incubated in PBS containing 1% casein, 0.2% Pluronic F-127 and 2 or 5 μM TCO-Cer for 5 min at 37° C. After washing three times with DMEM ph(−), the cells were incubated for 1 h at 19.5° C. in DMEM ph(−). During this incubation the dish was sealed with parafilm to protect the cells from the used water bath. Subsequently, the cells were washed three times and PBS containing 1% casein and 2 or 1 μM SiR-Tz, respectively, was added to the dish. The dish was sealed with parafilm again and incubated for 30 min at 19.5° C. After washing three times with DMEM ph(−), the cells were observed under a confocal microscope. Fixed samples were prepared similarly with an additional treatment with 4% PFA for 10 min at room temperature after first temperature block. […]
The Pearson correlation between the SiR and the GFP signal within cells was determined using the correlation measurement tool in Volocity. […] For cells stably expressing GalNAcT2-GFP and treated with SiR-Tz and Cer-TCO 13 samples (cells) were analyzed and for cells only treated with SiR-Tz 8 samples were analyzed. […]

**Q.** What does the source list for `CCCCCCCCCCCCC/C=C/[C@@H](O)[C@H](CO)NC(=O)CCCCC1=[N+]2C(=Cc3c(C)cc(C)n3[B-]2(F)F)C=C1` [BODIPY-Cer, BODIPY® FL C5-ceramide, reference compound]?
**A.** Time after which cell rounding and de-attachment was induced (HeLa cells): about 6 hours; Number of 3D stacks after which fluorescent signal decreased by 50% (HeLa cells (Golgi label)): < 15 stacks

**Q.** Which “Mobile fraction (FRAP)” value [1] does the source give for `CCCCCCCCCCCCC/C=C/[C@@H](O)[C@H](CO)NC(=O)CCCCCNC(=O)OC1CC/C=C/CCC1` (stereo partly drawn) [Cer-TCO, (E)-cyclooct-4-en-1-yl (6-(((2S,3R,E)-1,3-dihydroxyoctadec-4-en-2-yl)amino)-6-oxohexyl)carbamate] here?
**A.** The value was “unchanged”.

**Q.** How did the “Pearson's coefficient of colocalization with GalNAcT2-GFP signal” value ([2]; 2 μM Cer-TCO then 2 μM SiR-Tz, or SiR-Tz only, Golgi area, confocal) turn out when `CN(C)c1ccc2c(c1)[Si](C)(C)C1=CC(=[N+](C)C)C=CC1=C2c1cc(C(=O)NCc2ccc(-c3nncnn3)cc2)ccc1C(=O)[O-]` [SiR-Tz, 4-((4-(1,2,4,5-tetrazin-3-yl)benzyl)carbamoyl)-2-(7-(dimethylamino)-3-(dimethyliminio)-5,5-dimethyl-3,5-dihydrodibenzo[b,e]silin-10-yl)benzoate] was run?
**A.** The value was 0.08±0.01.

**Q.** And the “Labeling of cells / Golgi region” value ([2]; live HeLa GalNAcT2-GFP cells, Cer-TCO followed by SiR-Tz, or SiR-Tz alone)?
**A.** The value was “did not label the cells”.
